How the values were obtained:
Format in all cases: biochemical
[1] = biological target: T1, human ADAM17 (Homo sapiens, UniProt P78536); experiment: Selectivity assay ADAM17
T1 construct: human ADAM17 (Uniprot P78536), amino acids 1–670; made in house; host or cells: insect cells (baculovirus)
Experimental: (§1) All biochemical assays were performed at room temperature in 384-well plates in a total volume of 25.25 μl per well. Test compounds were dissolved in 90% (v/v) DMSO/water. For the assays, 250 nl of compound solution was added per well, followed by addition of 12.5 μl protease solution. After 70 min of pre-incubation at room temperature, the reactions were started by addition of 12.5 μl substrate solution and followed either by measuring fluorescence intensity (rhodamine 110-based substrates) or by fluorescence lifetime (PT14-based substrates). The effect of compound on enzymatic activity was obtained from the linear part of the progress curves and determined after 1 h (t=60 min). The final compound concentrations ranged from 100 μM to 1 nM.
(§2) Matrix metalloproteinases. Human MMP1 (Uniprot P03956), amino acids 1–469, expressed in and purified from stable transfected C127 cells; human MMP2 (Uniprot P08253), amino acids 1–660, expressed in and purified from insect cells (baculovirus expression system); human MMP8 (Uniprot P22894), amino acids 100–262, expressed in and purified from E. coli; human MMP9 (Uniprot P14780), amino acids 1–707, expressed in and purified from stable transfected 293 cells; human MMP12 (Uniprot P39900), amino acids 101–268, expressed in and purified from E. coli; human MMP13 (Uniprot P45452), amino acids 103–274, expressed in and purified from E. coli; human MMP14 (Uniprot P50281), amino acids 112–284, expressed in and purified from E. coli; human ADAM17 (Uniprot P78536), amino acids 1–670, expressed in and purified from insect cells (baculovirus expression system); substrate: Ac-C(PT14)-[…]-NH2 purchased from Biosyntan (product number 8069); enzyme concentrations: 3 nM (MMP1), 1 nM (MMP2), 3 nM (MMP8), 0.1 nM (MMP9), 0.5 nM (MMP12), 0.13 nM (MMP13), 0.005 nM (MMP14), 30 nM (ADAM17); substrate concentration: 0.8 μM; assay buffer: 100 mM Tris, pH 7.4, 100 mM NaCl, 10 mM CaCl2, 10 μM ZnCl2, 0.075% (v/v) Brij35.

[2] = biological target: T2, human MMP2 (Homo sapiens, UniProt P08253); experiment: Selectivity assay MMP2
T2 construct: human MMP2 (Uniprot P08253), amino acids 1–660; made in house; host or cells: insect cells (baculovirus)
T2 sequence (P08253 30-660): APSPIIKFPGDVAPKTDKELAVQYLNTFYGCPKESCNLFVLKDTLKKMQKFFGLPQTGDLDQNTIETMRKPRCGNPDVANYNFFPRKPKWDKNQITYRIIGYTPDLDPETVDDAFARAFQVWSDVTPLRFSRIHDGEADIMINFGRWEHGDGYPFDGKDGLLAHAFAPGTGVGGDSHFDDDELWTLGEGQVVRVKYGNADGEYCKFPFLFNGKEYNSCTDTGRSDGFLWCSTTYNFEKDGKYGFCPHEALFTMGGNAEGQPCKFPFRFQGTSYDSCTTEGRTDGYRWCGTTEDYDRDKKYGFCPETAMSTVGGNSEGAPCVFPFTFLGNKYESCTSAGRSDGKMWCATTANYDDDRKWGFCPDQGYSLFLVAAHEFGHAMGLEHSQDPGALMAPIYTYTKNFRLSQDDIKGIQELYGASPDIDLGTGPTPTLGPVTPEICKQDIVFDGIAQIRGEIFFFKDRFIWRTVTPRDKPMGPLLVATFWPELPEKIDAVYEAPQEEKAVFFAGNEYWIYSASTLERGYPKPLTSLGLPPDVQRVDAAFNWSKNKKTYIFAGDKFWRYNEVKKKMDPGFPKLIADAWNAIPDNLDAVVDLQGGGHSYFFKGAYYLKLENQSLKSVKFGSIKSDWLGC
Experimental: as §1, §2

[3] = biological target: T3, human MMP9 (Homo sapiens, UniProt P14780); experiment: Selectivity assay MMP9
T3 construct: human MMP9 (Uniprot P14780), amino acids 1–707; made in house; host or cells: stably transfected 293 cells
T3 sequence (P14780 20-707): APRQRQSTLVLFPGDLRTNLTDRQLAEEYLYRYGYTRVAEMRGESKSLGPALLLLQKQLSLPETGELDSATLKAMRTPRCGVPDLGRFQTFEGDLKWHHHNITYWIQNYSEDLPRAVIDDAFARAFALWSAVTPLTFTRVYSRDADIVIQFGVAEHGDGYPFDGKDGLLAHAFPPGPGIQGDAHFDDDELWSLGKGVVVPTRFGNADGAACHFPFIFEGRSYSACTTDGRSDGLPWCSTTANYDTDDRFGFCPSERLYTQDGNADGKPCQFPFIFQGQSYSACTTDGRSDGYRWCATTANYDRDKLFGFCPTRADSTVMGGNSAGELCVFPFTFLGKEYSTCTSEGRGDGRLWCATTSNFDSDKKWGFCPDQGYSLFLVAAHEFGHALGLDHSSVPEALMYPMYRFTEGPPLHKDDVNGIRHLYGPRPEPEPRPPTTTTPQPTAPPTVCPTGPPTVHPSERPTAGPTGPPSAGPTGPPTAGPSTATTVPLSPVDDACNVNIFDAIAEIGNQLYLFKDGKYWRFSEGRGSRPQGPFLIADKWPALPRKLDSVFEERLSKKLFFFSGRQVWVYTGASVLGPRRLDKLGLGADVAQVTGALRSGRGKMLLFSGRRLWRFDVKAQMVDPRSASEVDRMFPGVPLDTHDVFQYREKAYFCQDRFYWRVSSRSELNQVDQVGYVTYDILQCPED
Experimental: as §1, §2

[4] = biological target: T4, human MMP14 (Homo sapiens, UniProt P50281); experiment: Selectivity assay MMP14
T4 construct: human MMP14 (Uniprot P50281), amino acids 112–284; made in house; host or cells: E. coli
Experimental: as §1, §2

[5] = biological target: T5, human MMP12 (Homo sapiens, UniProt P39900); experiment: Selectivity assay MMP12
T5 construct: human MMP12 (Uniprot P39900), amino acids 101–268; made in house; host or cells: E. coli
T5 sequence (P39900 101-268): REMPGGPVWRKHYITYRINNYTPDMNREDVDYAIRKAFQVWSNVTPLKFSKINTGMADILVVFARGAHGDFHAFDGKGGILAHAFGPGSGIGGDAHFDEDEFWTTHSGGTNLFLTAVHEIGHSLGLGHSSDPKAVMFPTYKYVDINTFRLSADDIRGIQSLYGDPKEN
Experimental: as §1, §2

[6] = biological target: T6, Human AMSHLP (Homo sapiens, UniProt Q96FJ0); experiment: Selectivity assay AMSHLP (ubiquitin-rhodamine110-glycine substrate); conditions: JAMM domain protease
T6 construct: made in house; host or cells: E. coli
T6 sequence (Q96FJ0 1-436): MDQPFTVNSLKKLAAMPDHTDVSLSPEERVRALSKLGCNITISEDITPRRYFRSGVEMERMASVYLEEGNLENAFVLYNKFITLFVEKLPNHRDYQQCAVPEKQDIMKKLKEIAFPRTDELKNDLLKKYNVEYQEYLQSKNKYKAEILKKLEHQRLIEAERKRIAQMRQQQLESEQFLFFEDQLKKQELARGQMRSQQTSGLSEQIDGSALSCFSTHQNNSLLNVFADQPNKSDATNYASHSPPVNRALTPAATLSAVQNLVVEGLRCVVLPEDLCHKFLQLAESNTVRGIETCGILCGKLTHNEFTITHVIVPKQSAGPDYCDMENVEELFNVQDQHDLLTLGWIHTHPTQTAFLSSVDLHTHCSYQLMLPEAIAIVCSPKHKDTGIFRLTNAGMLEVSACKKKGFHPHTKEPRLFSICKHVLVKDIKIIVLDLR
Experimental: as §1
Human AMSHLP. Enzyme was expressed in and purified from E. coli; substrate: ubiquitin-rhodamine110-glycine was purchased from emp Biotech GmbH (Berlin, Germany; product number AS 09/12-A4); enzyme concentration: 4 nM; substrate concentration: 200 nM; assay buffer: 100 mM Tris/HCl at pH 7.5, 10 mM CaCl2, 100 mM NaCl, 10 μM ZnCl2, 0.005% (v/v) BRIJ 35 and 5 mM dithioerythritol (DTE).

[7] = biological target: T7, human MMP13 (Homo sapiens, UniProt P45452); experiment: Selectivity assay MMP13
T7 construct: human MMP13 (Uniprot P45452), amino acids 103–274; made in house; host or cells: E. coli
Experimental: as §1, §2

[8] = biological target: T8, human MMP8 (Homo sapiens, UniProt P22894); experiment: Selectivity assay MMP8
T8 construct: human MMP8 (Uniprot P22894), amino acids 100–262; made in house; host or cells: E. coli
T8 sequence (P22894 100-262): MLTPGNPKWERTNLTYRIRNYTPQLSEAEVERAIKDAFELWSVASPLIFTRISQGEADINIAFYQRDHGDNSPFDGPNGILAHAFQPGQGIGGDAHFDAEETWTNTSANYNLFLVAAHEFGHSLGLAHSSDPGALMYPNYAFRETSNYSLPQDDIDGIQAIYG
Experimental: as §1, §2

[9] = biological target: T9, CSN5 (Homo sapiens, UniProt Q92905); experiment: CSN5 activity assay (CSN deneddylation, fluorescence polarization); conditions: JAMM domain protease; means±s.d.
T9 construct: made in house; host or cells: Sf21 insect cells, co-infection of separate baculoviruses
Experimental: Unlike the majority of proteases, it is not active as an individual subunit or as an isolated catalytic domain. […] For the identification of CSN inhibitors, we therefore conducted a high-throughput screening campaign using a biochemical assay with recombinant CSN and a fluorescence-labelled and NEDD8-modified CRL substrate[30][40] (PT22-NEDD8-SCF^Skp2; Supplementary Table 1).
The potency of CSN5 inhibitors was determined in a CSN activity assay using changes in fluorescence polarization as the readout. Reactions were carried out at room temperature in 384-well plates. […] The effect of compound on enzymatic activity was determined from the linear part of the progression curves by an end-point measurement of the fluorescence polarization at 590 nm after excitation at 540 nm using a PHERAstar plate reader (BMG LABTECH GmbH). IC50 values were calculated from the plot of percentage of inhibition versus inhibitor concentration using the non-linear regression analysis software Origin 7.5SR6 (OriginLab Corp.).

T1 sequence (P78536 18-670): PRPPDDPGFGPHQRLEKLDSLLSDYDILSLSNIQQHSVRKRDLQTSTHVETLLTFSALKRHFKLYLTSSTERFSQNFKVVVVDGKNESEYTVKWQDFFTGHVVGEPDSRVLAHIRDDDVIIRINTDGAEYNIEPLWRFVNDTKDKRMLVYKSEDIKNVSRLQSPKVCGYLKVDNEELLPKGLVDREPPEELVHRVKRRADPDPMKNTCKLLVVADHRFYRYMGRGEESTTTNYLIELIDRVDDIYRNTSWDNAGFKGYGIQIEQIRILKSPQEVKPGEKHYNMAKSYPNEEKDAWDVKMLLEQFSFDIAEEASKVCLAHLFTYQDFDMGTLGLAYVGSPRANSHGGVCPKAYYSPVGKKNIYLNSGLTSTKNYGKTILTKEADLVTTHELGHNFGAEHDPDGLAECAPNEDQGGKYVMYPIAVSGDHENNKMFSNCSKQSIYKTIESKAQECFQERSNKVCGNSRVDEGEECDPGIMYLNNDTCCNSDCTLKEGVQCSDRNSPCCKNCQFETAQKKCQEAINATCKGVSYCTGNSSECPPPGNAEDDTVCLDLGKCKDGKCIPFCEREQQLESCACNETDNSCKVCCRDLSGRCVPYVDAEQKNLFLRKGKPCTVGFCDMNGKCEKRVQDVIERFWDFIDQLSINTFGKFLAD

IC50 [1]: > 100 µM
IC50 [2]: > 100 µM
IC50 [3]: > 100 µM
IC50 [4]: > 100 µM
IC50 [5]: > 100 µM
IC50 [6]: > 100 µM
IC50 [7]: > 100 µM
IC50 [8]: > 100 µM
IC50 [9]: 1.1 ± 0.5 µM
SMILES: N#Cc1ccc(C2C(O)CCCc3cncn32)c(-c2ccccc2Cl)c1 (stereo not drawn) [CSN5i-1b]
